The assay relates to patient with primary biliary cirrhosis (stage IV in Scheuer classification). Description: Clinical effect of oral L-alanine in a patient with terminal-stage primary biliary cirrhosis. Format: in vivo, human. As to the method:
The clinical effect of L-alanine was examined in a patient with primary biliary cirrhosis. The patient was suffering from primary biliary cirrhosis in the terminal stages (stage IV in Scheuer classification). After their symptoms had appeared, 600 mg/day of ursodeoxycholic acid was orally administered as a therapeutic agent everyday. However, this treatment became ineffective and the results of biochemical tests also became worse. Under these conditions, 18 g/day of L-alanine was orally administered to the patient in three doses every day for two months. Before and after the administration of L-alanine, two weeks in total of the observation period was taken, and then eight weeks of the administration period was taken. The blood specimen was taken once a week to determine total serum bilirubin and transaminase (AST). By the administration of L-alanine, total serum bilirubin and transaminase were reduced. […] As the administration was finished, increase of both total serum bilirubin and transaminase was observed.

[1] abbreviates: observation period after end of 18 g/day oral administration.
Where [2] appears, read: patient, 18 g/day orally in three doses, eight weeks administration, weekly blood specimen.

Structures are written as SMILES.

For the compound `C[C@H](N)C(=O)O` [L-alanine], for the setting “18 g/day orally, effect on total serum bilirubin and transaminase, lasted in the course of the administration”, the “time of maximum effect after the start of the administration” value is “two”. Further, the “therapeutic effect on the terminal case of primary biliary cirrhosis (symptoms)” value (L-alanine 18 g/day orally, ursodeoxycholic acid 600 mg/day orally) is “excellent therapeutic effect”. Also, under setting [1], the “total serum bilirubin after the administration was finished” value is reported as “increase” and the “transaminase after the administration was finished” value is listed as “increase”. Also, under setting [2], the total serum bilirubin result is given as “reduced” and the “transaminase (AST)” value was “reduced”.
